Experimental data as given in US11484543B2, “Compositions and methods for diagnosing and treating diseases and disorders associated with mutant KCNJ5” (The Rockefeller University, priority 2017, dated 2022).
Where a chain is given by its changes, count along the chain named.

Experiments:
[1] = in vivo; cited from earlier work
KCNJ3/KCNJ5^L168R = biological target: T1, KCNJ3/KCNJ5^L168R (Homo sapiens, UniProt P48544, L168R); experiment: Perforated whole-cell patch clamp, KCNJ3/KCNJ5^L168R heterotetramers in HEK293T cells; format: cell-based; settings: 1 mM BaCl2, after 20 μM roxithromycin
T1 construct: GFP; expressed in transfected cells; host or cells: HEK293T (American Type Culture Collection), transient co-transfection
T1 sequence (P48544 1-419 L168R): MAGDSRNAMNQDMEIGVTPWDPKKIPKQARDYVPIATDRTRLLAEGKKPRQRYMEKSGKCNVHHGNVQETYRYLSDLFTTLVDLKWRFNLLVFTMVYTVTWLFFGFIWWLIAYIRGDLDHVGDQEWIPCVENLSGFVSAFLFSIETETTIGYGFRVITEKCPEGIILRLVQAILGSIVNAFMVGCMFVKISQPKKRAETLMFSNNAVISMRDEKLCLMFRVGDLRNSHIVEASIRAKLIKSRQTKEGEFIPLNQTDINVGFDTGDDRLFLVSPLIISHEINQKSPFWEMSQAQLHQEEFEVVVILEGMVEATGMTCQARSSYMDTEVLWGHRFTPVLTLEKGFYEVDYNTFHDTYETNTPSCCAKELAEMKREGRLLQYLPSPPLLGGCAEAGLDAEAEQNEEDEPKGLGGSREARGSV
T1 sequence (P48549 1-501 partner): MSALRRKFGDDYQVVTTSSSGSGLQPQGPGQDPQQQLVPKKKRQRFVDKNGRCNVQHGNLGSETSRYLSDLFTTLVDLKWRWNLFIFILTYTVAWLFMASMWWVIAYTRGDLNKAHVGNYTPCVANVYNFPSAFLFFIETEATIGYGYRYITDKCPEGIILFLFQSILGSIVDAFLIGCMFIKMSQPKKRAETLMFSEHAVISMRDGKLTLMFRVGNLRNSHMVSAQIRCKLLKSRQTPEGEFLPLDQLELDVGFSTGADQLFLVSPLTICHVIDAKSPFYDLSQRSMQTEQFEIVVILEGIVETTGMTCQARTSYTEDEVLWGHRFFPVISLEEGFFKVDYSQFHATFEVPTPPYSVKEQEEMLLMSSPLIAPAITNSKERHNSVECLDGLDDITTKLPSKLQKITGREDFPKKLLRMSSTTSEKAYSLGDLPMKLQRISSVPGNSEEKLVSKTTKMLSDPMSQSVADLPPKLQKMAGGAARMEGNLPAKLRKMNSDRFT
Experimental: (§1) HEK293T cells (American Type Culture Collection) were used for transient expression of GFP-tagged KCNJ5 or KCNJ3. The cells were grown in Dulbecco's modified Eagle medium (DMEM; Invitrogen) supplemented with 10% FBS (Invitrogen) in 5% CO2 and 95% air at 37° C. Cells were grown to 50-70% confluence for transfection, and the corresponding cDNAs (Choi et al., 2011, Science 331:768-772) were simultaneously applied to the cells using TurboFect transfection reagent according to the manufacturer's protocol (Fermentas). […]
(§2) Within 24 hr after transfection, the cells were treated with trypsin-containing medium (TrypLE Express) (Gibco) for 10 minutes to detach the cells. […] Fluorescence signal (an indication of positive transfection) was detected with an intensified video imaging system including a SIT 68 camera (Long Island Industries). […] After forming a high resistance seal (>2 GΩ), the membrane capacitance was monitored until the whole-cell patch configuration was formed. The cell membrane capacitance was measured and compensated. The K/cation currents were measured from −80 mV to 20 mV with 20 mV steps by an Axon 200A patch-clamp amplifier. The currents were low-pass filtered at 1 KHz and digitized by an Axon interface (Digidata 1200) and were analyzed using the pClamp software system 9 (Axon). […]

KCNJ3/KCNJ5^WT = biological target: T2, KCNJ3/KCNJ5^WT (Homo sapiens, UniProt P48544); experiment: Perforated whole-cell patch clamp, KCNJ3/KCNJ5^WT heterotetramers in HEK293T cells; format: cell-based; settings: 1 mM BaCl2
T2 construct: GFP; expressed in transfected cells; host or cells: HEK293T (American Type Culture Collection), transient co-transfection
T2 sequence (P48544 1-419): T1 sequence (P48544 1-419 L168R) with R168L
T2 sequence (P48549 1-501 partner): T1 sequence (P48549 1-501 partner)
Experimental: as §1, §2

Compound	plasma half-life [1]	block of remaining KCNJ3/KCNJ5^L168R current (KCNJ3/KCNJ5^L168R)	barium sensitivity of KCNJ3/KCNJ5^WT currents (KCNJ3/KCNJ5^WT)
C[C@]12CCC(=O)C=C1CC[C@@H]1[C@@H]2[C@@H](O)C[C@]2(C=O)[C@@H](C(=O)CO)CC[C@@H]12 [aldosterone]	~30 min		
[Ba+2].[Cl-].[Cl-] [barium, BaCl2]		blocked	sensitive
